Data as given in the NIST ThermoML archive (doi:10.1016/j.jct.2015.07.005).
Several values for one entry are separate records, joined by “and”; a condition that tells them apart may be missing. Identical values can stand only once.

Conditions: Gas, Frequency=0.005 MHz, Spherical cavity resonance method

F/C=C/C(F)(F)F [trans-1,3,3,3-tetrafluoropropene]
Conditions | speed of sound
279.9 K, 79.55 kPa | 146.69 m/s and 146.7 m/s
279.9 K, 157.55 kPa | 143.78 m/s
279.9 K, 241.33 kPa | 140.43 m/s
279.91 K, 79.56 kPa | 146.7 m/s
279.91 K, 241.34 kPa | 140.43 m/s
279.92 K, 157.55 kPa | 143.79 m/s
279.92 K, 241.34 kPa | 140.43 m/s
299.96 K, 80.04 kPa | 152.13 m/s
299.96 K, 239.74 kPa | 147.27 m/s
299.97 K, 80.03 kPa | 152.13 m/s
299.97 K, 159.07 kPa | 149.78 m/s
299.97 K, 239.75 kPa | 147.27 m/s
299.97 K, 361.26 kPa | 143.22 m/s
299.98 K, 80.03 kPa | 152.13 m/s
299.98 K, 159.07 kPa | 149.78 m/s
299.98 K, 239.74 kPa | 147.27 m/s
299.98 K, 361.27 kPa | 143.22 m/s
319.93 K, 552.34 kPa | 144.79 m/s
319.94 K, 98.42 kPa | 156.86 m/s
319.94 K, 195.83 kPa | 154.47 m/s
319.94 K, 195.84 kPa | 154.47 m/s
319.94 K, 400.99 kPa | 149.11 m/s
319.94 K, 552.38 kPa | 144.78 m/s
319.94 K, 552.39 kPa | 144.78 m/s
319.95 K, 98.42 kPa | 156.87 m/s
319.95 K, 195.84 kPa | 154.47 m/s
319.95 K, 400.99 kPa | 149.1 m/s
319.96 K, 98.42 kPa | 156.86 m/s
319.97 K, 790.74 kPa | 137.11 m/s
319.97 K, 790.76 kPa | 137.11 m/s
319.98 K, 790.76 kPa | 137.11 m/s
319.98 K, 790.77 kPa | 137.11 m/s
319.99 K, 790.81 kPa | 137.11 m/s
339.94 K, 1198.3 kPa | 134.8 m/s and 134.79 m/s
339.95 K, 199.81 kPa | 159.81 m/s
339.95 K, 199.82 kPa | 159.81 m/s
339.95 K, 311.18 kPa | 157.48 m/s
339.95 K, 311.19 kPa | 157.48 m/s
339.95 K, 511.43 kPa | 153.07 m/s
339.95 K, 511.55 kPa | 153.07 m/s
339.95 K, 797.03 kPa | 146.18 m/s
339.95 K, 797.04 kPa | 146.18 m/s
339.95 K, 1001.8 kPa | 140.68 m/s
339.95 K, 1001.9 kPa | 140.68 m/s
339.95 K, 1198.4 kPa | 134.8 m/s
339.96 K, 99.31 kPa | 161.86 m/s
339.96 K, 200.05 kPa | 159.82 m/s
339.96 K, 311.18 kPa | 157.48 m/s
339.96 K, 400.04 kPa | 155.58 m/s and 155.58 m/s
339.96 K, 511.39 kPa | 153.07 m/s
339.96 K, 797.05 kPa | 146.18 m/s
339.96 K, 1001.9 kPa | 140.68 m/s
339.97 K, 99.31 kPa | 161.86 m/s
339.97 K, 200.05 kPa | 159.82 m/s
339.97 K, 200.06 kPa | 159.82 m/s
339.97 K, 400.04 kPa | 155.58 m/s
339.97 K, 799.59 kPa | 146.12 m/s
339.98 K, 595.08 kPa | 151.15 m/s
339.98 K, 799.46 kPa | 146.12 m/s
339.98 K, 799.52 kPa | 146.12 m/s
359.95 K, 99 kPa | 166.68 m/s
359.95 K, 99.01 kPa | 166.68 m/s
359.96 K, 99 kPa | 166.68 m/s
359.96 K, 99.01 kPa | 166.69 m/s and 166.68 m/s
359.96 K, 307 kPa | 163.12 m/s
359.96 K, 510.35 kPa | 159.46 m/s
359.96 K, 808.74 kPa | 153.75 m/s
359.96 K, 1598.8 kPa | 135.69 m/s
359.97 K, 307 kPa | 163.12 m/s
359.97 K, 511.03 kPa | 159.45 m/s
359.97 K, 808.65 kPa | 153.75 m/s
359.97 K, 808.68 kPa | 153.75 m/s
359.97 K, 1174.2 kPa | 146.04 m/s
359.97 K, 1174.3 kPa | 146.04 m/s
359.97 K, 1598.8 kPa | 135.7 m/s
359.97 K, 2002.9 kPa | 123.58 m/s and 123.58 m/s
359.98 K, 1598.8 kPa | 135.7 m/s
359.98 K, 2002.9 kPa | 123.58 m/s
379.99 K, 98.62 kPa | 171.32 m/s
379.99 K, 98.63 kPa | 171.32 m/s
379.99 K, 297.94 kPa | 168.44 m/s
379.99 K, 452.13 kPa | 166.16 m/s
379.99 K, 784.29 kPa | 161.02 m/s
379.99 K, 784.34 kPa | 161.02 m/s
379.99 K, 1195.5 kPa | 154.18 m/s
379.99 K, 1195.6 kPa | 154.18 m/s
379.99 K, 2008.2 kPa | 138.61 m/s
380 K, 98.61 kPa | 171.32 m/s
380 K, 98.63 kPa | 171.32 m/s
380 K, 297.93 kPa | 168.44 m/s
380 K, 452.13 kPa | 166.16 m/s
380 K, 784.28 kPa | 161.02 m/s
380 K, 1195.5 kPa | 154.18 m/s
380 K, 1608.3 kPa | 146.68 m/s
380 K, 2008.2 kPa | 138.61 m/s
380 K, 2215.6 kPa | 134.03 m/s
380 K, 2215.7 kPa | 134.03 m/s
380 K, 2385.9 kPa | 130 m/s
380 K, 2386 kPa | 130 m/s
380 K, 2606.5 kPa | 124.35 m/s
380 K, 2606.6 kPa | 124.35 m/s
380.01 K, 2606.6 kPa | 124.35 m/s
380.01 K, 2822.2 kPa | 118.21 m/s
380.01 K, 2822.3 kPa | 118.22 m/s
380.02 K, 2822.3 kPa | 118.22 m/s
401.99 K, 98.41 kPa | 176.35 m/s
401.99 K, 98.44 kPa | 176.35 m/s
401.99 K, 98.45 kPa | 176.35 m/s
401.99 K, 98.46 kPa | 176.35 m/s
402 K, 98.39 kPa | 176.35 m/s
402 K, 98.4 kPa | 176.35 m/s
402 K, 98.42 kPa | 176.35 m/s
402 K, 98.43 kPa | 176.35 m/s
402 K, 98.44 kPa | 176.35 m/s
402 K, 98.45 kPa | 176.35 m/s
402 K, 98.46 kPa | 176.35 m/s
402 K, 299.24 kPa | 173.94 m/s
402 K, 299.25 kPa | 173.94 m/s
402 K, 299.26 kPa | 173.94 m/s
402 K, 503.14 kPa | 171.43 m/s
402 K, 504.13 kPa | 171.42 m/s
402 K, 504.78 kPa | 171.41 m/s
402 K, 504.99 kPa | 171.4 m/s
402 K, 505.27 kPa | 171.4 m/s
402 K, 505.76 kPa | 171.4 m/s
402 K, 505.81 kPa | 171.4 m/s
402 K, 505.96 kPa | 171.4 m/s
402 K, 506.02 kPa | 171.4 m/s
402.01 K, 502.88 kPa | 171.44 m/s
402.01 K, 503 kPa | 171.43 m/s
402.01 K, 505.02 kPa | 171.41 m/s
402.01 K, 793.53 kPa | 167.78 m/s
402.01 K, 793.54 kPa | 167.77 m/s and 167.77 m/s
402.01 K, 1189.8 kPa | 162.56 m/s and 162.56 m/s
402.01 K, 1595.9 kPa | 156.94 m/s
402.01 K, 1596 kPa | 156.94 m/s
402.02 K, 1595.8 kPa | 156.94 m/s and 156.94 m/s
402.02 K, 1595.9 kPa | 156.94 m/s
402.02 K, 1596 kPa | 156.94 m/s
402.02 K, 1596.1 kPa | 156.94 m/s
402.02 K, 1596.2 kPa | 156.94 m/s
402.02 K, 1596.3 kPa | 156.94 m/s
402.02 K, 1996.4 kPa | 151.09 m/s
402.03 K, 1996.4 kPa | 151.09 m/s and 151.09 m/s
402.03 K, 2385.1 kPa | 145.09 m/s
402.03 K, 2385.2 kPa | 145.1 m/s and 145.1 m/s
402.04 K, 2832 kPa | 137.75 m/s and 137.75 m/s
402.04 K, 2832.1 kPa | 137.75 m/s and 137.75 m/s
419.97 K, 100.24 kPa | 180.17 m/s
419.97 K, 100.26 kPa | 180.17 m/s
419.97 K, 100.28 kPa | 180.17 m/s
419.97 K, 298.93 kPa | 178.09 m/s
419.98 K, 100.2 kPa | 180.17 m/s
419.98 K, 100.21 kPa | 180.17 m/s
419.98 K, 100.22 kPa | 180.17 m/s
419.98 K, 100.23 kPa | 180.17 m/s
419.98 K, 100.24 kPa | 180.17 m/s
419.98 K, 100.25 kPa | 180.17 m/s
419.98 K, 100.27 kPa | 180.17 m/s
419.98 K, 100.28 kPa | 180.17 m/s
419.98 K, 298.92 kPa | 178.09 m/s
419.98 K, 298.93 kPa | 178.09 m/s
419.98 K, 476.26 kPa | 176.21 m/s
